# Target: Potassium voltage-gated channel subfamily A member 3 (Homo sapiens, UniProt P22001)
# Experiment: Displacement of [125I]- ChTX from human T cell voltage-gated potassium channel subunit Kv1.3
# Type: cell-based
# Potassium voltage-gated channel subfamily A member 3, sequence (P22001 whole entry): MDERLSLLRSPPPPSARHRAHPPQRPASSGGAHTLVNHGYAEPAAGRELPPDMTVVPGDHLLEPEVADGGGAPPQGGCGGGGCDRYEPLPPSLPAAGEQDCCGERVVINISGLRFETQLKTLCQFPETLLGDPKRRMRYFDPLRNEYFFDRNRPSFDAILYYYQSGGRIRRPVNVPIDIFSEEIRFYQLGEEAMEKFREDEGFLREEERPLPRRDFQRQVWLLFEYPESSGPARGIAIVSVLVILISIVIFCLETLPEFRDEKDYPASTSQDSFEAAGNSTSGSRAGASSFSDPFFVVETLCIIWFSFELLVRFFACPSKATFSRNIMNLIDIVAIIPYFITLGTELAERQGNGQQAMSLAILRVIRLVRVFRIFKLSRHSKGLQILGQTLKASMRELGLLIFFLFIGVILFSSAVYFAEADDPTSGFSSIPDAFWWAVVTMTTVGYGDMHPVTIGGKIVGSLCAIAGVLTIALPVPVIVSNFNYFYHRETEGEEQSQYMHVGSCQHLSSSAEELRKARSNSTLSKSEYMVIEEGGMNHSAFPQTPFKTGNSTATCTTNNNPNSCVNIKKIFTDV
row,Compound,IC50
1,CCCCNC(=O)c1cc(/C=C/Cc2ccccc2)ccc1-c1ccc(Cl)cc1,6.1 µM
2,CC(C)NC(=O)c1cc(/C=C/Cc2ccccc2)ccc1-c1ccc(Cl)cc1,5.6 µM
3,CCCNC(=O)c1cc(/C=C/CCc2ccccc2)ccc1-c1ccc(Cl)cc1,4 µM
4,CC(C)NC(=O)c1cc(/C=C/c2cccc(Cl)c2)ccc1-c1ccc(Cl)cc1,10.1 µM
5,CCNC(=O)c1cc(/C=C/CCc2ccccc2)ccc1-c1ccc(Cl)cc1,3.2 µM
6,CCCNC(=O)c1cc(/C=C/c2ccc(F)cc2)ccc1-c1ccc(Cl)cc1,9.7 µM

# Continued by falling IC50, values first:
row,IC50,Compound
1,9.9 µM,CC(C)NC(=O)c1cc(/C=C/c2ccc(OCc3ccccc3)cc2)ccc1-c1ccc(Cl)cc1
2,8 µM,CCCCNC(=O)c1cc(/C=C/c2ccccc2F)ccc1-c1ccc(Cl)cc1
3,5.8 µM,CCCNC(=O)c1cc(/C=C/Cc2ccccc2)ccc1-c1ccc(Cl)cc1
4,3.9 µM,NC(N)=NNC(=O)c1cc(/C=C/c2ccc(F)cc2)ccc1-c1ccc(Cl)cc1
5,3.7 µM,CC(C)NC(=O)c1cc(/C=C/c2ccc(Cl)c(F)c2)ccc1-c1ccc(Cl)cc1
6,2.9 µM,CNC(=O)c1cc(/C=C/c2ccc(OCc3ccccc3)c(OCc3ccccc3)c2)ccc1-c1ccc(Cl)cc1
7,0.2 µM,CCCCC/N=c1\ccn(Cc2ccccc2)c2ccccc12 [CP-339818]

# Reference: ChEMBL document CHEMBL1131887, “Blockers of human T cell Kv1.3 potassium channels using de novo ligand design and solid-phase parallel combinatorial chemistry” (Bioorg Med Chem Lett, 1999)
